# In patent US7026280B2, “LV V-Haemorphin-7 neuroactive peptide and methods of use” (Howard Florey Institute of Experimental Physiology, priority 1996, dated 2006):
# pIC50: −log10 of the molar value. Where two headings read alike, the source gives them in different places. Where a SMILES comes first, the peptide text is derived from it. Side-chain parts run from the residue outwards. [ ]: non-standard residue; d: D form. The star is where a group is joined. Nicotinoyl = O=C(c1cccnc1)*; Nle = CCCC[C@H](N)C(=O)O; Cbz = O=C(OCc1ccccc1)*
# Legend:
# AT4 receptor [1] = assay: Competition for [125I]Ang IV binding on prefrontal cortical brain sections (in vitro receptor autoradiography); design: species or system Macaca fascicularis; conditions: for pIC50: monkey prefrontal cortical sections, read-out: IC50 for competing for [125I]Ang IV binding; for Competition for [125I]Ang IV binding: even at concentrations of 10 mM
# [2] = test system: embryonic chicken sympathetic neurons
# AT4 receptor sites = assay: Cross-displacement of [125I]LVV-haemorphin-7 and [125I]Ang IV binding on sheep hindbrain sections
# Experimental: Sheep hindbrain sections were used to compare the distribution of ^125I-LVV-haemorphin-7 binding and AT4 receptor sites. Sections at 10 μm thickness were equilibrated to 22° C. (30 min), and then preincubated for 30 min in an isotonic buffer containing 50 mM Tris, 150 mM sodium chloride, 5 mM EDTA, 100 μM phenylmethylsulfonyl fluoride, 20 μM bestatin and 0.1% bovine serum albumin, pH 7.4, before a further 2 h incubation in the same buffer containing 2.84 μCi of [^125I]LVV-haemorphin-7 or [125I]Ang IV (approximately 140 pM). The binding of the radioligands was cross-displaced with either 1 μM unlabelled LVV-haemorphin-7 or Ang IV. After incubation, the sections were given three 2 min washes in buffer at 4° C., and exposed to X-ray film for 14 to 28 d.
# AT4 receptor [3] = conditions: literature; mediated via the AT4 receptor; cited from earlier work
# [4] = molecular target: T1, embryonic chicken Ang IV binding site (AT4 receptor) (Gallus gallus, UniProt F1NNE7); assay: Competition for [125I]Ang IV binding to E13 chicken chorioallantoic membranes; conditions: for Concentration at which only 50% of the [125I]Ang IV sites were competed for: E13 chicken CAM, only 50% of the sites
# T1 sequence (F1NNE7 1-1024): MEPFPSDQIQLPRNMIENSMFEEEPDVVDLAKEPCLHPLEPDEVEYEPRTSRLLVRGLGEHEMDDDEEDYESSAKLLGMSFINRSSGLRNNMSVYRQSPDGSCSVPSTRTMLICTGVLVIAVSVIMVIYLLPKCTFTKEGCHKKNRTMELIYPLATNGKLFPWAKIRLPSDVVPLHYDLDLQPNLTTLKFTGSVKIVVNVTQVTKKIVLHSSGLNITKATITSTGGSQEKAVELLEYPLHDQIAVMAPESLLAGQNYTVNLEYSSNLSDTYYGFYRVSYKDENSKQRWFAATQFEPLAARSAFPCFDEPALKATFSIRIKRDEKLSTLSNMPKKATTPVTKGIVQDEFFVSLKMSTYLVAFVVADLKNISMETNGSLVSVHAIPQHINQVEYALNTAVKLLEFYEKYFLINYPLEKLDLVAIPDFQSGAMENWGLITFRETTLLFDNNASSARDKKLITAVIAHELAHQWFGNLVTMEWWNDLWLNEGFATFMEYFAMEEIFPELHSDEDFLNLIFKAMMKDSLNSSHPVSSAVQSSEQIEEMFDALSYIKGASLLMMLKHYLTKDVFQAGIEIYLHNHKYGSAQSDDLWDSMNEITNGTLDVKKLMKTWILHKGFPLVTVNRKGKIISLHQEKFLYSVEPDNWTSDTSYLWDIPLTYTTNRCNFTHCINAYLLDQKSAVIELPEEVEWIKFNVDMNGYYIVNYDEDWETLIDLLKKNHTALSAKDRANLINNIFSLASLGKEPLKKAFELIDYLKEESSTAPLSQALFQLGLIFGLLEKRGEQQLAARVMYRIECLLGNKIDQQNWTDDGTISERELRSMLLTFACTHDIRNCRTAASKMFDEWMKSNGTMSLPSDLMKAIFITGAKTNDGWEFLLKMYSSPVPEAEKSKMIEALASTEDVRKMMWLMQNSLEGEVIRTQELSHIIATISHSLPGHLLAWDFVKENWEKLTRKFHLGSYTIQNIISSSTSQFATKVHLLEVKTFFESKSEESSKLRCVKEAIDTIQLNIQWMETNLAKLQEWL
# AT4 receptor [5] = molecular target: T2, AT4 receptor (Ovis aries, UniProt A0ACI6PQ17); assay: Competition for [125I]LVV-haemorphin-7 binding to sheep cerebellar cortical membranes; conditions: read-out: IC50 for competing for 125I-LVV-haemorphin-7 binding
# AT4 receptor [6] = molecular target: T2, AT4 receptor; assay: Competition for [125I]Ang IV binding to sheep cerebellar cortical membranes
# [7] = molecular target: Ang IV binding site (AT4 receptor) (Homo sapiens, UniProt Q9UIQ6); conditions: literature; cited from earlier work
# [8] = test system: scopolamine-induced amnesia; conditions: rat, in vivo
# [9] = test system: scopolamine-induced amnesia
# [10] = 10^−8 M Ang II, test substance 1 μM
# [11] = 10^−8 M Ang IV, test substance 1 μM
# Sequence of Ang IV binding site (AT4 receptor) (Q9UIQ6 whole entry): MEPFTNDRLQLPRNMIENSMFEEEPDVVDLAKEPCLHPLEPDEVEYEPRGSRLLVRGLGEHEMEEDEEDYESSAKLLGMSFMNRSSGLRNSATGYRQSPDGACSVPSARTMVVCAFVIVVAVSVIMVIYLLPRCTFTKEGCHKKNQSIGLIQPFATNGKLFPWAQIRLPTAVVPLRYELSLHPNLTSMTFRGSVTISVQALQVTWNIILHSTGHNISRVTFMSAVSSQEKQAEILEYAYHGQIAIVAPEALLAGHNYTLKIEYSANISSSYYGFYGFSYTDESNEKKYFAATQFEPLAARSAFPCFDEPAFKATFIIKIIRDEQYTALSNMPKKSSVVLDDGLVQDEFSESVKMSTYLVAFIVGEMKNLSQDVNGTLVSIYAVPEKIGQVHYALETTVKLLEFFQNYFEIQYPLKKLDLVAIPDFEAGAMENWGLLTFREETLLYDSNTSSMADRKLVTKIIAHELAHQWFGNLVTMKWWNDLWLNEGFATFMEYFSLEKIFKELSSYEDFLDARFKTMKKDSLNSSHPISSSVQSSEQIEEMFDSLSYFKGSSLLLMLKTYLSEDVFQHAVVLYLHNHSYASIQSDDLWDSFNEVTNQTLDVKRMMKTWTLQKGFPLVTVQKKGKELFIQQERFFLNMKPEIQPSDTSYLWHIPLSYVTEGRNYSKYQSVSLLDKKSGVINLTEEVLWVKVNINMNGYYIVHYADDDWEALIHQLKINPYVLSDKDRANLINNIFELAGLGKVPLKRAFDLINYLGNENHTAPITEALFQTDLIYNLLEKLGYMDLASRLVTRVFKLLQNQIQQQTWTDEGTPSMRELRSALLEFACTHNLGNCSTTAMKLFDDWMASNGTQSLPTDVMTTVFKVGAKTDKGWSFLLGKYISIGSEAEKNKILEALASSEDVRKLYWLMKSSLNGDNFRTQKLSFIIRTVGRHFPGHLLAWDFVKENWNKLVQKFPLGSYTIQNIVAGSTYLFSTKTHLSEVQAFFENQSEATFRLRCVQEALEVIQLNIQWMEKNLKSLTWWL
# T2 sequence (A0ACI6PQ17 1-1050): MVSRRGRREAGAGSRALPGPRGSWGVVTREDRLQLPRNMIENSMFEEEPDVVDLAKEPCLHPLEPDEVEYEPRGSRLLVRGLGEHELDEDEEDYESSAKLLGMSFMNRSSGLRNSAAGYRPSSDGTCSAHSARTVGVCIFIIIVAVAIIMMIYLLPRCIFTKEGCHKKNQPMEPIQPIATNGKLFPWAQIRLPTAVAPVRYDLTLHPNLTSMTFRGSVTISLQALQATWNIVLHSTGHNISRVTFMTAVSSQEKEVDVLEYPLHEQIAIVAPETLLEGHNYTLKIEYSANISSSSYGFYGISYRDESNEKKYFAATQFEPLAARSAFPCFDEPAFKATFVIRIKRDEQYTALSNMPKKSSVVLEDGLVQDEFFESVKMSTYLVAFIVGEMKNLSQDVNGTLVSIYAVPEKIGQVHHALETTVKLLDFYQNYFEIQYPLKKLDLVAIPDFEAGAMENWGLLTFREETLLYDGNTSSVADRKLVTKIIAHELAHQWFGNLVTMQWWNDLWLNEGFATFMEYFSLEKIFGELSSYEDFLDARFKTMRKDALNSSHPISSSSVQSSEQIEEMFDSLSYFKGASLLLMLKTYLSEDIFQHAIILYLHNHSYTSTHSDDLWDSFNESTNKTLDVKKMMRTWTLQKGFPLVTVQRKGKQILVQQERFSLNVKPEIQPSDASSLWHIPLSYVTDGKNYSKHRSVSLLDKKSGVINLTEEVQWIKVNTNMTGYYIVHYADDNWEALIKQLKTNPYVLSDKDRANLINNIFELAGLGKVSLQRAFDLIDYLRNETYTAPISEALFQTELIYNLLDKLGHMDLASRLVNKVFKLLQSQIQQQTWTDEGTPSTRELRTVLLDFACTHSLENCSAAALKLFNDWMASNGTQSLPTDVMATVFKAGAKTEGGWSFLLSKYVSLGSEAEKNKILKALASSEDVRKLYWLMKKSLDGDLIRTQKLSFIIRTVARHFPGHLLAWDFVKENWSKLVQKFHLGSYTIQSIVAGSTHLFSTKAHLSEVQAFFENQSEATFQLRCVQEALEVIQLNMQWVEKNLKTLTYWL
molecule,measurement,setting,value
CC[C@H](C)[C@H](NC(=O)[C@H](Cc1ccc(O)cc1)NC(=O)[C@@H](NC(=O)[C@@H](N)CCCNC(=N)N)C(C)C)C(=O)N[C@@H](Cc1c[nH]cn1)C(=O)N1CCC[C@H]1C(=O)N[C@@H](Cc1ccccc1)C(=O)O [Ang III],pIC50,AT4 receptor [1],7.10
CC[C@H](C)[C@H](NC(=O)[C@H](Cc1ccc(O)cc1)NC(=O)[C@@H](NC(=O)[C@H](CCCNC(=N)N)NC(=O)[C@@H](N)CC(=O)O)C(C)C)C(=O)N[C@@H](Cc1c[nH]cn1)C(=O)N1CCC[C@H]1C(=O)N[C@@H](Cc1ccccc1)C(=O)O [Ang II],pIC50,AT4 receptor [1],6.14
same,Inhibition of neurite outgrowth,[2],25%
"CC[C@H](C)[C@H](NC(=O)[C@H](Cc1ccc(O)cc1)NC(=O)[C@@H](N)C(C)C)C(=O)N[C@@H](Cc1cnc[nH]1)C(=O)N1CCC[C@H]1C(=O)N[C@@H](Cc1ccccc1)C(=O)O [Ang IV, NH2-Val Tyr Ile His Pro Phe-COOH]",Displacement of [125I]LVV-haemorphin-7 and [125I]Ang IV binding,"AT4 receptor sites; 1 μM unlabelled ligand, sheep hindbrain sections",displaced
same,Concentration of maximal effect on neurite outgrowth,[2],10^−9 M
same,Threshold concentration for inhibition of neurite outgrowth,[2],10^−11 M
same,pIC50,[2]; read-out: Half maximal inhibition of neurite outgrowth,10.00
same,Effect on memory in a passive avoidance task,AT4 receptor [3],improve memory retention and retrieval
CC[C@H](C)[C@H](NC(=O)[C@@H]1CCCN1C(=O)[C@H](Cc1c[nH]cn1)NC(=O)[C@H](CCCCNC(=O)[C@H](CCCNC(=N)N)NC(=O)OCc1ccccc1)NC(=O)[C@H](Cc1ccc(O)cc1)NC(=O)c1cccnc1)C(=O)O [CGP 42112] (Nicotinoyl-YK([Arg-Cbz])HPI-OH; N-terminus and C-terminus assumed),Concentration at which only 50% of the [125I]Ang IV sites were competed for,[4],0.5 µM
same,Effect on the inhibition of neurite outgrowth by Ang II,[2],ineffective
same,Effect on the inhibition of neurite outgrowth by Ang IV,[2],no effect
CCCC[C@H](N)C(=O)N[C@@H](Cc1ccc(O)cc1)C(=O)N[C@H](C(N)=O)[C@@H](C)CC [Nle^1-Y-I-amide] (H-[Nle]-Tyr-Ile-NH2; N-terminus assumed),Effect on the inhibition of neurite outgrowth by Ang IV,[2],totally reversed
Cc1cc(Cn2cnc3c2C[C@@H](C(=O)O)N(C(=O)C(c2ccccc2)c2ccccc2)C3)ccc1N(C)C [PD 123319],Competition for [125I]Ang IV binding,AT4 receptor [1],inactive
same,Inhibition of [125I]Ang IV binding,[4]; at concentrations up to 10 μM,inactive
same,pIC50,AT4 receptor [5]; sheep cerebellar cortical membranes,4.34
same,Competition for [125I]Ang IV binding,AT4 receptor [6]; at 10 μM,inactive
same,Effect on the inhibition of neurite outgrowth by Ang II,[2]; [10],ineffective
same,Effect on the inhibition of neurite outgrowth by Ang IV,[2]; [11],no effect
same,Affinity of the Ang IV site for the ligand,[7],low to very low affinity
CC[C@H](C)[C@H](NC(=O)[C@@H]1CCCN1C(=O)[C@H](Cc1c[nH]cn1)NC(=O)[C@@H](NC(=O)[C@H](Cc1ccc(O)cc1)NC(=O)[C@@H](NC(=O)[C@H](CCCNC(=N)N)NC(=O)CNC)C(C)C)[C@@H](C)CC)C(=O)O [[Sar^1Ile^8]Ang II],Concentration at which only 50% of the [125I]Ang IV sites were competed for,[4],10 µM
same,Effect on the inhibition of neurite outgrowth by Ang II,[2],ineffective
same,Effect on the inhibition of neurite outgrowth by Ang IV,[2],no effect
same,Affinity of the Ang IV site for the ligand,[7],low to very low affinity
CCCCc1nc(Cl)c(CO)n1Cc1ccc(-c2ccccc2-c2nn[nH]n2)cc1 [losartan],Competition for [125I]Ang IV binding,AT4 receptor [1],inactive
same,Effect on the inhibition of neurite outgrowth by Ang II,[2]; [10],ineffective
same,Effect on the inhibition of neurite outgrowth by Ang IV,[2]; [11],no effect
same,Affinity of the Ang IV site for the ligand,[7],low to very low affinity
CN1[C@@H]2C[C@@H](OC(=O)[C@H](CO)c3ccccc3)C[C@H]1[C@@H]1O[C@@H]12 [scopolamine],Latency in finding the platform after amnesic agent,[8],significantly increased latencies
same,Passive avoidance performance after amnesic agent,[9]; 70 nmol intracerebroventricularly followed by saline,learning and memory deficits
LVVYPWTQRF [LVV-haemorphin-7],pIC50,AT4 receptor [5],8.25
same,pIC50,AT4 receptor [6]; read-out: IC50 for competing for [125I]Ang IV binding,8.70
same,Displacement of [125I]LVV-haemorphin-7 and [125I]Ang IV binding,AT4 receptor sites,displaced
same,Effect on scopolamine-induced latency in finding the platform,[8],totally reversed
same,Effect on scopolamine-induced amnesia (latency to enter dark compartment),"[9]; 70 nmol scopolamine followed by 1.0 nmol peptide, intracerebroventricularly",completely reversed
same,"Passive avoidance performance, substance alone","[9]; saline followed by 1.0 nmol, intracerebroventricularly",performed worse than the scopolamine-treated rats
